Results reported in paper PMC5799255, “Histone H5 is a potent Antimicrobial Agent and a template for novel Antimicrobial Peptides” (Scientific Reports, 2018).
Read-outs that look alike come from different tables or passages of the source. Marks after values point to notes of the source that are not given here. Ends that are not written are not given here.

Legend:
[1] = system: P. aeruginosa biofilms; conditions: cited from earlier work
Text: (§1) L. monocytogenes and P. aeruginosa are major human pathogens that cause serious illnesses through foodborne and hospital-acquired infections, respectively. […] Moreover, an estimated 51,000 healthcare-associated infections leading to 440 deaths per year in the United States are caused by P. aeruginosa. Additionally, both pathogens have the ability to form biofilms, which enhances their persistence in unfavourable environ ...

[2] = system: Listeria monocytogenes (ATCC 19112); conditions: preliminary peptide screen, peptide purities 50% to 81.9%, tested 1-64 µg/mL, broth microdilution, mean ± SD, n = 3
Procedure: (§2) Antimicrobial activity of histone H5 against a variety of Gram-positive and Gram-negative planktonic bacteria was evaluated using a broth microdilution assay.
(§3) The antimicrobial activity of these peptides against Gram-positive and Gram-negative planktonic bacteria was evaluated using broth microdilution assays.
(§4) The bacterial strains tested in this study were Gram-positive bacteria (Bacillus cereus (ATCC 11778), methicillin-sensitive Staphylococcus aureus (ATCC 6538), methicillin-resistant Staphylococcus aureus (ATCC 29247), Listeria monocytogenes (ATCC 19112), Enterococcus faecalis (clinical isolate) and vancomycin-resistant Enterococcus (ATCC 51299)) and Gram-negative bacteria Escherichia coli K12 (ATCC 29425), Escherichia coli (O157:H7), Pseudomonas aeruginosa (ATCC 15442) and Salmonella typhimurium (ATCC 1535)). Bacterial colonies from glycerol stocks were plated on LB agar plates (BHI agar plates for L. monocytogenes) and incubated overnight at 37 °C. Single colonies from these plates were grown in 3 mL of LB broth (BHI broth for L. monocytogenes) overnight at 37 °C and shaken at 250 rpm. […] The bacterial suspension was pelleted at 3,000 × g, 4 °C for 10 minutes and washed with PBS (twice), and then adjusted to 10^5–10^6 CFUs/mL in PBS.
(§5) Supplementary Information
(§6) Broth microdilution assay
(§7) The protocol for this step of the project was based on established methods22. Histone H5 or the peptides were dissolved in sterile water, pH 7.4, serially two-fold diluted and aliquoted in a 1:1 (v/v) ratio with bacteria. Kanamycin or ampicillin served as a positive control for inhibition, and sterile water (pH 7.4) as a negative control for inhibition. The tubes were then incubated for 3 hours at 37°C an d shaken at 200 rpm. Next, 100 µL of each tube and 100µL of LB broth (BHI broth for L. monocytogenes) was plated in wells of a 96-well microplate. The microplate was incubated in the EON microplate reader overnight at 206 oscillations/min and at 37°C. During this period, the EON microplate spectrophotometer and Gen5 data analysis software (BioTek, Winooski, VT, USA) were used to monitor the growth of bacteria by measuring the optical density at 600 nm every 30 minutes for 18 hours. The lowest protein concentration without visible bacterial growth was designated as the minimum inhibitory concentration (MIC). Bacteria (10 µL) from the wells at MIC, MIC x 2 and MIC x 3 concentrations of H5 were plated on LB agar (BHI agar for L. monocytogenes) and incubated at 37°C for 18 hours. The lowest concentration of histone H5 without a single colony was designated as the minimum bactericidal concentration (MBC).

[3] = system: Pseudomonas aeruginosa (ATCC 15442); conditions: preliminary peptide screen, peptide purities 50% to 81.9%, tested 1-64 µg/mL, broth microdilution, mean ± SD, n = 3
Procedure: as §2, §3, §4, §5, §6, §7

[4] = system: L. monocytogenes biofilms; conditions: 6.8 µg/mL, 2 and 4 hours of treatment, cited from earlier work
Text: as §1

[5] = system: S. aureus; parameters: method as in PMID 22723861, PMID 16978580; conditions: cited from earlier work
[6] = system: P. aeruginosa; parameters: method as in PMID 22723861, PMID 16978580; conditions: cited from earlier work
[7] = system: E. coli; parameters: method as in PMID 22723861, PMID 16978580; conditions: cited from earlier work
[8] = system: E. faecalis; parameters: method as in PMID 22723861, PMID 16978580; conditions: cited from earlier work

melittin: CAMP tested against P. aeruginosa biofilms in the literature
MBEC [1]: > 640 µg/mL

LL-37
MBEC [1]: 640 µg/mL
MBEC/MIC ratio [1]: 5–80

RVKASRRSASHPTYSEMIAAAIRAEKSRGG [H5(16–45)]
MIC [2]: inactive
MIC ([2]; listed as H5 (16–45)): NI ^‡ (Non-inhibitory at the highest concentration tested (64 µg/mL))
MIC [3]: non-inhibitory
MIC ([3]; listed as H5 (16–45)): NI ^‡ (Non-inhibitory at the highest concentration tested (64 µg/mL))

EMIAAAIRAEKSRGGSSRQS [H5(31–50)]
MIC [2]: inactive
MIC ([2]; listed as H5 (31–50)): NI ^‡ (Non-inhibitory at the highest concentration tested (64 µg/mL))
MIC [3]: non-inhibitory
MIC ([3]; listed as H5 (31–50)): NI ^‡ (Non-inhibitory at the highest concentration tested (64 µg/mL))

LSIRRLLAAGVLKQTKGVGA [H5(71–90)]
MIC [2]: >64^† µg/mL
MIC [3]: 26.7 ± 14.1 µg/mL

paenibacterin
disruption of established biofilms (in words) ([4]; biofilms developed statically at 30 °C): effective
disruption of established biofilms (in words) ([4]; stronger biofilms developed at 37 °C): not effective

EMIAAAIRAEKSRGGSSRQSIQKYIKSHYK [H5(31–60)]
MIC [2]: inactive
MIC ([2]; listed as H5 (31–60)): NI ^‡ (Non-inhibitory at the highest concentration tested (64 µg/mL))
MIC [3]: non-inhibitory
MIC ([3]; listed as H5 (31–60)): NI ^‡ (Non-inhibitory at the highest concentration tested (64 µg/mL))

VLKQTKGVGASGSFRLAKSD [H5(81–100)]
MIC [2]: inactive
MIC ([2]; listed as H5 (81–100)): NI ^‡ (Non-inhibitory at the highest concentration tested (64 µg/mL))
MIC [3]: non-inhibitory
MIC ([3]; listed as H5 (81–100)): NI ^‡ (Non-inhibitory at the highest concentration tested (64 µg/mL))

magainin II
MBEC [1]: > 640 µg/mL

Human β-defensin-3: a human host defence antimicrobial peptide (GIINTLQKYYCRVRGGRCAVLSCLPKEEQIGKCSTRGRKCCRRKK; ends and bridges not checked; cysteine pairing not given here; UniProt P81534 23-67, looked up)
MIC [5]: 12 µg/mL
MIC [6]: 13 µg/mL
MIC [7]: 6 µg/mL
MIC [8]: > 512 µg/mL
